Like-named read-outs stand apart in the source and are kept apart here.
How the values were obtained:
human D2S receptor [1] = target: T1, human D2S receptor (Homo sapiens, UniProt P14416); test: Competition radioligand binding at human D2 receptor ([3H]-Spiperone, CHO-K1 membranes); conditions: mean ± SEM of 2–3 independent experiments in duplicate; read-out: huD2 Ki
T1 construct: expressed in transfected cells; host or cells: CHO-K1
Experimental: Experiments were carried out in membranes isolated from a CHO-K1 cell line stably overexpressing the cloned human D2S receptor.
(§1) Competition radioligand binding assays were performed on membranes isolated from cell lines stably expressing the cloned human receptors, which were either in-house or commercially available. […] Assays (250 μL assay final volume) were carried out in 96-well polypropylene plates in duplicate. In short, the suspension of appropriate membrane protein was incubated in an assay buffer with the addition of the corresponding radioligand, in the presence or absence of a tested compound or reference compound. […] After the incubation, the content of the test plates was transferred to 96 well plates with glass fiber filter GF/B or GF/C, previously pretreated with polyethyleneimine (PEI), and rapidly filtered with the use of vacuum, followed by rapid washing with cold (4 °C) wash buffer. After that, the filter plates were dried at 60 °C for 1 h. Then, 30 μL of liquid scintillation cocktail (UniverSol-ES, MP Biomedicals, Solon, OH, USA) was added to each well of the filter plates, and the radioactivity was measured in a MicroBeta^2 microplate scintillation counter (PerkinElmer, Madrid, Spain).
(§2) Competition binding curves were fitted to a one-site competition binding model (Fit Ki) with the use of Prism 7 software (GraphPad, San Diego, CA, USA). logKi (log of the equilibrium dissociation constant (Ki)) values were obtained after constraining the concentration of radioligand employed in the assay and its dissociation constant (KD) as determined in saturation radioligand binding assays.

[2] = target: T2, human dopamine D1 receptor (Homo sapiens, UniProt P21728); test: Competition radioligand binding at human D1 receptor ([3H]-SCH-23390); conditions: mean ± SEM of 2 independent experiments, read-out: huD1 % inh. at 10 µM
T2 construct: expressed in transfected cells; host or cells: CHO-K1
Experimental: as §1, §2

[3] = target: T3, human dopamine D3 receptor (Homo sapiens, UniProt P35462); test: Competition radioligand binding at human D3 receptor ([3H]-Spiperone); conditions: mean ± SEM of 2 independent experiments, read-out: huD3 % inh. at 10 µM
T3 construct: expressed in transfected cells; host or cells: CHO-K1
Experimental: as §1, §2

human 5-HT1A receptor [4] = target: T4, human 5-HT1A receptor (Homo sapiens, UniProt P08908); test: Competition radioligand binding at human 5-HT1A receptor ([3H]-8-OH-DPAT); conditions: mean ± SEM of 2 independent experiments, read-out: hu5-HT1A % inh. at 10 µM
T4 construct: expressed in transfected cells; host or cells: HEK293
T4 sequence (P08908 1-422): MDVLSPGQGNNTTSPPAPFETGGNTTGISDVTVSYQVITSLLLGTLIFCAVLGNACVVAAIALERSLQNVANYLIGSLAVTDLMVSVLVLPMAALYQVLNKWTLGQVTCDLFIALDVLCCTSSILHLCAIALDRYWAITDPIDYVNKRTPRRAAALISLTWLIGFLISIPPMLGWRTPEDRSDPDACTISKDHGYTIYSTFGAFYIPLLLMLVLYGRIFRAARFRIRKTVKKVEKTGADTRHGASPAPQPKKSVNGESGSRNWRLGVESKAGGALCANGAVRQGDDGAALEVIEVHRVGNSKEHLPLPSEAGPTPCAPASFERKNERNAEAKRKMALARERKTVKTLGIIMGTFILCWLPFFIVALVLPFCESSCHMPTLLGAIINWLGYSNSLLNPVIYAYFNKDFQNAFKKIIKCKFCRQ
Experimental: as §1, §2

human 5-HT2A receptor [5] = target: T5, human 5-HT2A receptor (Homo sapiens, UniProt P28223); test: Competition radioligand binding at human 5-HT2A receptor ([3H]-Ketanserin); conditions: mean ± SEM of 2 independent experiments, read-out: hu5-HT2A % inh. at 10 µM
T5 construct: expressed in transfected cells; host or cells: CHO-K1
Experimental: as §1, §2

human 5-HT7 receptor = target: T6, human 5-HT7 receptor (Homo sapiens, UniProt P34969); test: Competition radioligand binding at human 5-HT7 receptor ([3H]-SB269970); conditions: mean ± SEM of 2 independent experiments, read-out: hu5-HT7 % inh. at 10 µM
T6 construct: expressed in transfected cells; host or cells: HEK293
Experimental: as §1, §2

human D2S receptor [6] = target: T1, human D2S receptor; test: Functional assays of cAMP signalling at D2 receptors (CHO-K1 cells, HTRF); type: cell-based; conditions: for Kb: antagonism of 1 µM dopamine response; for efficacy at D2 receptor (mode of action): cAMP signaling, CHO-K1 cells
Experimental: The assessment of the activity of selected compounds at the D2 receptor was performed in cell-based functional assays of cAMP signaling, in the CHO-K1 cell line with stable expression of the cloned human D2S receptor, which was also employed for the radioligand binding assays. For D2 receptor antagonism, test compounds were dispensed into an empty 96-well plate (Isoplate-96 Black Frame White Well, PerkinElmer España SL, Madrid, Spain) with the use of the dispensing noncontact Echo 550 acoustic liquid handler (LABCYTE Inc., San Jose, CA, USA). Compounds were handled from frozen 10^−2 M stock solutions in 100% DMSO, from which serial 1000× solutions were prepared in 100% DMSO at the time of the assay, keeping vehicle concentration (0.1% DMSO) constant in the assay. Vials containing viable frozen cells were quickly thawed in a 37 °C water bath and cells were seeded into the assay plate in assay buffer (kit stimulation buffer containing 500 µM 3-isobutyl-1-methylxanthine (IBMX), which was directly added to the buffer as powder). […] After 10 min incubation at 37 °C, 10 µM forskolin was added to the corresponding wells, and incubation was continued for 5 min. After this time, cellular cAMP levels were quantified using the homogeneous time-resolved fluorescence (HTRF)-based cAMP Gs dynamic kit (Cisbio, Bioassays, Codolet, France) according to the manufacturer’s protocol. […] Basal cAMP levels were determined in control wells in the absence of compound, agonist, and forskolin.

human D2S receptor [7] = target: T1, human D2S receptor; conditions: radioligand binding; ref [10]; read-out: huD2 Ki; cited from earlier work
[8] = target: T2, human dopamine D1 receptor; conditions: ref [10]; cited from earlier work
[9] = target: T3, human dopamine D3 receptor; conditions: ref [10]; cited from earlier work
human 5-HT1A receptor [10] = target: T4, human 5-HT1A receptor; conditions: ref [10]; cited from earlier work
human 5-HT2A receptor [11] = target: T5, human 5-HT2A receptor; conditions: ref [10]; cited from earlier work
[12] = Leff-Dougall variant of Cheng-Prusoff, read-out: D2 Signalling (cAMP) Kb (Mean)

T2 sequence (P21728 whole entry): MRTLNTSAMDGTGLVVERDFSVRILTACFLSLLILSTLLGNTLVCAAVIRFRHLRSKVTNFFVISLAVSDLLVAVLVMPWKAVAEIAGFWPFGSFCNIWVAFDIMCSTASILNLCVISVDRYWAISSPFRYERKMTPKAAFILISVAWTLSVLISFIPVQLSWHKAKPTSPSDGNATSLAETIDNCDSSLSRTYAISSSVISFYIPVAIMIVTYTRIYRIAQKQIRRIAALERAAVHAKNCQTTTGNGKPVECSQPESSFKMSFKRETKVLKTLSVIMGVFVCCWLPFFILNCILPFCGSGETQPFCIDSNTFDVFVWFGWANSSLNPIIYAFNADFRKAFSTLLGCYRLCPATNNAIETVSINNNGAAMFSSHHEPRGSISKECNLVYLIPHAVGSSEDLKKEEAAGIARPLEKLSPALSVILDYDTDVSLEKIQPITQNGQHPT
T3 sequence (P35462 whole entry): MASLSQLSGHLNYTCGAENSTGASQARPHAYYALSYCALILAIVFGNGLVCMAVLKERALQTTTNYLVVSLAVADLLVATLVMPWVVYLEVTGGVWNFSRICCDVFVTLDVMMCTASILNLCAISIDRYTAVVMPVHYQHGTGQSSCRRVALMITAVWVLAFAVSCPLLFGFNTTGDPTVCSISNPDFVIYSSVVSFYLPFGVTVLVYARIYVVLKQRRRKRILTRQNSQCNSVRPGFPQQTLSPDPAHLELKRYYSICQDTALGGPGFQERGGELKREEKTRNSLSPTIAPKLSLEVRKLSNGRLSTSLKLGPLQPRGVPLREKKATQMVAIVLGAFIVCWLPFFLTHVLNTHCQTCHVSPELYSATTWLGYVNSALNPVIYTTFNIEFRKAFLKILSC
T1 sequence (P14416 1-414 isoform P14416-2): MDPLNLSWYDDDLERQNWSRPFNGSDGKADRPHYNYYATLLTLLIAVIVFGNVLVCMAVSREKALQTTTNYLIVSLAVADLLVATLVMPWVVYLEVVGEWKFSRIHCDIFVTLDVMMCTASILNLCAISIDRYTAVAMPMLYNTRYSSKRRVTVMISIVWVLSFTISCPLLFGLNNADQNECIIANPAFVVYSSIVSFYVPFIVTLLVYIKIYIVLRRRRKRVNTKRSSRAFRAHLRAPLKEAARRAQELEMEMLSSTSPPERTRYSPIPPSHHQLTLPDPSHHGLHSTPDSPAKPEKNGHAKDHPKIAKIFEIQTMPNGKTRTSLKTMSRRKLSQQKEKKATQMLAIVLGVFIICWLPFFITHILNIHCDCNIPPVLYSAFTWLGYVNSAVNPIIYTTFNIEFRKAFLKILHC
T5 sequence (P28223 whole entry): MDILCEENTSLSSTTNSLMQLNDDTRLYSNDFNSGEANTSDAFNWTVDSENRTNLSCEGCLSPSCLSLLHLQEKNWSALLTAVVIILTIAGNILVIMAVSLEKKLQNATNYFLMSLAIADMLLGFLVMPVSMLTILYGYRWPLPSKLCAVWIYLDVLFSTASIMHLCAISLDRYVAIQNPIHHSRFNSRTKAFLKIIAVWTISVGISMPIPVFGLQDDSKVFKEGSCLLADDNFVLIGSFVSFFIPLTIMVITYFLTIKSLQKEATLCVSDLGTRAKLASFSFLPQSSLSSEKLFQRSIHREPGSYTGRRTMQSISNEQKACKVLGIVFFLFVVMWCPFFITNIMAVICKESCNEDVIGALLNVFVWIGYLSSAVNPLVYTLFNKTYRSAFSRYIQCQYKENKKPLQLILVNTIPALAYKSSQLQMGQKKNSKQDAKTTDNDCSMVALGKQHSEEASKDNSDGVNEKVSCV
T6 sequence (P34969 whole entry): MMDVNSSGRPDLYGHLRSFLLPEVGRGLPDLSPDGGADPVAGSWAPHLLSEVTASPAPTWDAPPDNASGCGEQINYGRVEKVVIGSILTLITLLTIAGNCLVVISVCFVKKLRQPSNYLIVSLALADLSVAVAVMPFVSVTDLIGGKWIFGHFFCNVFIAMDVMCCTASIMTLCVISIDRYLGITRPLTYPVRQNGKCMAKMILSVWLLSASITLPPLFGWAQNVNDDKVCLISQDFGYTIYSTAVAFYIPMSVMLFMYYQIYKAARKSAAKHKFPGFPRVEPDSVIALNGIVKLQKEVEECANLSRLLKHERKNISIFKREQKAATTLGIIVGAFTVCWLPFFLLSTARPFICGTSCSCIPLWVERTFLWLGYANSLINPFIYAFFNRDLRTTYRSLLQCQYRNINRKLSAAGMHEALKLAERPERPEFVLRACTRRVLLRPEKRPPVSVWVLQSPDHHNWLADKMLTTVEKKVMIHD

Cc1ccc(NC(=O)CCN2C(=O)CSc3ccccc32)cc1 [Compound 14, 3-(3-Oxo-2,3-dihydro-4H-benzo[b][1,4]thiazin-4-yl)-N-(p-tolyl)propanamide]
Ki (human D2S receptor [1]): 676 ± 134 nM
inhibition at 10 µM [2]: 15 ± 2%
inhibition at 10 µM [3]: 8 ± 4%
inhibition at 10 µM (human 5-HT1A receptor [4]): 27 ± 2%
inhibition at 10 µM (human 5-HT2A receptor [5]): 15 ± 1%
inhibition at 10 µM (human 5-HT7 receptor): 0%
Kb (human D2S receptor [6]; forskolin-stimulated cAMP, three independent experiments, read-out: D2 Signalling (cAMP) pKb (Mean ± SEM) (converted)): 117 nM
Kb (human D2S receptor [6]; [12]): 119 nM
efficacy at D2 receptor (mode of action) (human D2S receptor [6]): antagonism

O=C(CCN1C(=O)CSc2ccccc21)Nc1ccc(C(F)(F)F)cc1 [Compound D2AAK2]
Ki (human D2S receptor [7]): 321 ± 25 nM
activity at dopamine D1 receptor [8]: not active
activity at dopamine D3 receptor [9]: not active
activity at serotonin 5-HT1A receptor (human 5-HT1A receptor [10]): not active
activity at serotonin 5-HT2A receptor (human 5-HT2A receptor [11]): not active

O=C(CCN1C(=O)CSc2ccccc21)Nc1ccc([N+](=O)[O-])cc1 [Compound 23, N-(4-Nitrophenyl)-3-(3-oxo-2,3-dihydro-4H-benzo[b][1,4]thiazin-4-yl)propanamide]
Ki (human D2S receptor [1]): 724 ± 114 nM
inhibition at 10 µM [2]: 12 ± 2%
inhibition at 10 µM [3]: 4 ± 3%
inhibition at 10 µM (human 5-HT1A receptor [4]): 22 ± 3%
inhibition at 10 µM (human 5-HT2A receptor [5]): 23 ± 3%
inhibition at 10 µM (human 5-HT7 receptor): 0%
Kb (human D2S receptor [6]; [12]): 113 nM
efficacy at D2 receptor (mode of action) (human D2S receptor [6]): antagonism
